The text below walks through data of paper PMC10308239, “Light-driven Proton Pumps as a Potential Regulator for Carbon Fixation in Marine Diatoms” (Microbes and Environments, 2023).

Data set [1] deals with T1, PngR (Pseudo-nitzschia granii, UniProt A0A0A7RP02).
T1 construct: gene RHO; full length, E. coli codon-optimised, C-terminal His6 tag (pET21a NdeI-XhoI), expressed in E. coli BL21(DE3) with all-trans retinal, purified in DDM
In words: HPLC of retinal oxime isomers from purified holoprotein; absorption spectrum. Type of data set: binding. The conditions noted are these: covalent; chromophore; light- and dark-adapted samples; 50 mM Tris-HCl pH 7.0, 1 M NaCl, 0.05% DDM.

For data set [2], the target named is Asp91 (position 91, …). In words: UV-vis. The settings on record: room temperature (approximately 25°C), 1 M NaCl, Buffer A: 50 mM Tris-HCl, 0.05% (w/v) DDM, pH adjusted by addition of HCl, Dark/ground (unphotolysed) state with all-trans retinal, measured under room light, DDM-solubilised, folded (reversibility checked).

Consider `CC1=C(/C=C/C(C)=C/C=C/C(C)=C/C=O)C(C)(C)CCC1` [all-trans retinal], for which, in data set [1], the “HPLC of retinal oxime isomers from purified holoprotein; absorption spectrum” value is “In light- and dark-adapted samples, the isomeric state of retinal was predominantly all-trans”.

B1: PngR (Pseudo-nitzschia granii rhodopsin, xanthorhodopsin-like light-driven proton pump) (Pseudo-nitzschia granii) (protein)
chain: MVTANQFTIVYDVLSFSLATMMATTIFLWMRVPSVHEKYKSALIISGLVTFIAAYHYLRIFNSWTEAYEWTAEGELSATASPFNDAYRYMDWLLTVPLLLIEIILVMKLPADESRSKATTLGIASAAMIAIGYPGELAMSDDSLGTRWVYWIGAMLPFLYIVQTLLVGLNDATQSEADPAIRDLIKGVQWWTVISWCTYPVVYVFPMMGITGTNAIVGIQLGYSVSDIISKCGVGLMIYQITIAKSYALKKGNEETPLYG
Regarding B1, the pKa result in data set [2] was “approximately 5.0”.
